Test results taken from PMC11984691, “Identifying ENO1 as a protein target of chlorogenic acid to inhibit cellular senescence and prevent skin photoaging in mice” (Aging Cell, 2024).

Assays:
[1] = target: T1, Enolase 1 (ENO1) C399A (Homo sapiens, UniProt P06733, C399A); assay: MicroScale Thermophoresis with purified mutant ENO1; assay type: binding
T1 construct: recombinant human ENO1-C399A, pET28a, His-tag

[2] = target: T2, Enolase 1 (ENO1) (Homo sapiens, UniProt P06733); assay: MicroScale Thermophoresis with purified ENO1; also LC-MS/MS site mapping, CETSA, pull-down competition and enzyme activity inhibition; assay type: binding
T2 construct: recombinant wild-type human ENO1 (NP_001419.1), pET28a, His-tag
T2 sequence (P06733 2-434): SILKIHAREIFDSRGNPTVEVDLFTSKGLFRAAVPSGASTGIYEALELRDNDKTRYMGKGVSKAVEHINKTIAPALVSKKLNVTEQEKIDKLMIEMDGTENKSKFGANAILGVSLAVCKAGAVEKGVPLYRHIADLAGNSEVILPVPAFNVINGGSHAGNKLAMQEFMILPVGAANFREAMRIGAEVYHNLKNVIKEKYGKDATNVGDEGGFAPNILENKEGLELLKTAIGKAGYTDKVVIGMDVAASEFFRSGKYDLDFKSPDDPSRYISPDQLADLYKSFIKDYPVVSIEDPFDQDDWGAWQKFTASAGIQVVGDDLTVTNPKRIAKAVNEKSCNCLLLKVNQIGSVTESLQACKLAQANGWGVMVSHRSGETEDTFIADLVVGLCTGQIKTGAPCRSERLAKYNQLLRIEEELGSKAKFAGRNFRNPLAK

T1 sequence (P06733 2-434 C399A): as the sequence (P06733 2-434) above, with C398A counted along it

## O=C(/C=C/c1ccc(O)c(O)c1)O[C@@H]1C[C@](O)(C(=O)O)C[C@@H](O)[C@H]1O [CGA, Chlorogenic acid]
[1]
  Kd: 130 µM
[2]
  Kd: 20 µM
